One block for each molecule: values may come before it. Square brackets hold non-standard residues; d marks the D form. Peptide text beside a SMILES is read from it. * marks the point of attachment. Dip = N[C@H](C(=O)O)C(c1ccccc1)c1ccccc1; CH2(1-naphthyl) = c1ccc2c(C*)cccc2c1; Abu(4,4-F2) = N[C@@H](CC(F)F)C(=O)O; Hyp = O=C(O)[C@@H]1C[C@@H](O)CN1; Cha = N[C@@H](CC1CCCCC1)C(=O)O; Chg = N[C@H](C(=O)O)C1CCCCC1; Ac3c = NC1(C(=O)O)CC1
Assays:
[1] = molecular target: T1, Hepatitis C virus serine protease, NS3/NS4A (Hepatitis C virus, UniProt A3EZI9+D2K2A8); experiment: Inhibition of C-terminal HCV NS4A-NS3 protease; format: protein-complex assay, Hepacivirus hominis
[2] = Oral bioavailability in rat plasma; format: ADME, organism-based; settings: in vivo
[3] = system: Hepatitis C virus; experiment: Antiviral activity against Hepatitis C virus; format: functional, organism-based, Hepacivirus hominis
[4] = molecular target: T1, Hepatitis C virus serine protease, NS3/NS4A; experiment: Inhibition of HCV NS4A-NS3 protease; format: protein-complex assay, Hepacivirus hominis
[5] = molecular target: T1, Hepatitis C virus serine protease, NS3/NS4A; experiment: Inhibition of Hepatitis C virus NS3/NS4A protease; format: protein-complex assay, Hepacivirus hominis
[6] = system: Hepatitis C virus; experiment: Antiviral activity against HCV GT1a-genotype assessed as inhibition of viral replication; format: functional, organism-based, Hepacivirus hominis
[7] = system: Hepatitis C virus; experiment: Antiviral activity against HCV GT1b-genotype assessed as viral growth inhibition measured after 24 hrs; format: functional, organism-based, Hepacivirus hominis; settings: Hepatitis C virus, GT1b-genotype, 24 h
[8] = Binding affinity to Hepatitis C virus NS3 assessed as inhibition constant; set-up: species or system Hepacivirus hominis
[9] = Half life in dog liver microsomes; format: ADME, Canis lupus familiaris, Microsome
[10] = system: Hepatitis C virus; experiment: Antiviral activity against HCV genotype 1b by replicon assay; format: functional, organism-based, Hepacivirus hominis
[11] = system: Hepatitis C virus; experiment: Inhibition of HCV genotype 1a; format: functional, organism-based, Hepacivirus hominis
[12] = system: Hepatitis C virus; experiment: Antiviral activity against HCV genotype 1b Tyr93His mutant; settings: Hepacivirus hominis
[13] = system: Hepatitis C virus; experiment: Antiviral activity against HCV genotype 1a; format: functional, organism-based, Hepacivirus hominis
[14] = system: Hepatitis C virus; experiment: Antiviral activity against HCV genotype 1b; format: functional, organism-based, Hepacivirus hominis
[15] = system: Hepatitis C virus; experiment: Antiviral activity against HCV genotype 1b harboring NS5A Y93H mutant; format: functional, organism-based, Hepacivirus hominis
[16] = system: Hepatitis C virus; experiment: Antiviral activity against HCV genotype 1b expressing NS5B S365A mutant variant; format: functional, organism-based, Hepacivirus hominis
[17] = Binding affinity to Hepatitis C virus NS3 protease (1027 to 1206 residues) expressed in Escherichia coli assessed as inhibition constant; set-up: species or system Hepacivirus hominis

T1 sequence (D2K2A8 whole entry): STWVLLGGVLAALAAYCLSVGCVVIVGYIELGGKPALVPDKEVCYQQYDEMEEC
T1 sequence (A3EZI9 whole entry): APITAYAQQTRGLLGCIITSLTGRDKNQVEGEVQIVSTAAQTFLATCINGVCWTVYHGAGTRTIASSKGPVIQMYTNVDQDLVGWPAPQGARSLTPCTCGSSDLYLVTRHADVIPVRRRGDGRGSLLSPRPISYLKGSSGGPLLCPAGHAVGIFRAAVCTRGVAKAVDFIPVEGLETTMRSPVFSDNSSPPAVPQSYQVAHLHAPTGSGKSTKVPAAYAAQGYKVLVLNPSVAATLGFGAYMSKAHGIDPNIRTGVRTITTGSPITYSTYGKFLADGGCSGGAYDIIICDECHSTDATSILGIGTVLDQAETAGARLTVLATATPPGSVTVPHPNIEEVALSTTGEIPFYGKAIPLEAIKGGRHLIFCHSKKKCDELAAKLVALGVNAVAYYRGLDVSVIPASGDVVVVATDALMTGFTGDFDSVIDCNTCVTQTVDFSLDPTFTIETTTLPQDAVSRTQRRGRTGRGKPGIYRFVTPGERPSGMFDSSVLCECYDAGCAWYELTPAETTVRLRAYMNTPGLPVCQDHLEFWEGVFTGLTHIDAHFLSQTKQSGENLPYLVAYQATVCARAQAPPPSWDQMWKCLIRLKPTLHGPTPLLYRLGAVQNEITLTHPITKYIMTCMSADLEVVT

Molecule: COc1ccc2c(O[C@@H]3C[C@H]4C(=O)N[C@]5(C(=O)O)C[C@H]5/C=C\CCCCC[C@H](NC(=O)OC(C)(C)C)C(=O)N4C3)cc(-c3ccccc3)nc2c1
IC50 [1]: 11 nM
F [2]: 42%
EC50 [3]: 1.2 nM
IC50 [4]: 3 nM

Ki [5]: 3 nM
Molecule: CC(=O)N[C@@H](CC(=O)O)C(=O)N[C@@H](CCC(=O)O)C(=O)N[C@H](C(=O)N[C@@H](CCC(=O)O)C(=O)N[C@@H](CC1CCCCC1)C(=O)N[C@@H](CC(F)F)C(=O)O)C(c1ccccc1)c1ccccc1 (Ac-DE[Dip]E[Cha][Abu(4,4-F2)]-OH)

Molecule: CN(C)S(=O)(=O)NC(=O)c1ccc2c(C3CCCCC3)c3n(c2c1)C[C@@]1(C(=O)N2CCOCC2)C[C@H]1c1ccccc1-3
EC50 [6]: 41 nM
EC50 [7]: 51 nM

Molecule: Ac-DEMEEC-OH
Ki [8]: 600 nM

Molecule: CN(C)S(=O)(=O)NC(=O)c1ccc2c(C3CCCCC3)c3n(c2c1)C[C@]1(C(=O)N2CCOCC2)C[C@@H]1c1ccccc1-3
EC50 [6]: 472 nM
EC50 [7]: 336 nM

half-life [9]: 2.83 h
Molecule: C=C[C@@H]1C[C@]1(NC(=O)[C@@H]1C[C@@H](Oc2cc(-c3ccccc3)nc3cc(OC)ccc23)CN1C(=O)[C@@H](NC(=O)OC(C)(C)C)C(C)(C)C)C(=O)NS(=O)(=O)C1CC1

IC50 [4]: 3500 nM
Molecule: CC(=O)N[C@H](C(=O)N[C@H](C(=O)N1C[C@H](OCc2cccc3ccccc23)C[C@H]1C(=O)NC1(C(=O)O)CC1)C(C)C)C1CCCCC1 (Ac-[Chg]V[Hyp](CH2(1-naphthyl))[Ac3c]-OH)

Molecule: C=C[C@@H]1C[C@]1(NC(=O)[C@@H]1C[C@@H](Oc2cc(-c3ccccc3)nc3cc(OC)ccc23)CN1C(=O)[C@@H](NC(=O)OC(C)(C)C)C(C)(C)C)C(=O)O
EC50 [10]: 550 nM
IC50 [11]: 54 nM

Molecule: COc1ccc2c(c1)C=C(C(=O)N1CCOCC1)Cn1c-2c(C2CCCCC2)c2ccc(C(=O)NS(=O)(=O)N(C)C)cc21
EC50 [6]: 61 nM
EC50 [7]: 62 nM

Molecule: O=C1N[C@H]2[C@H](CS[C@H]2CCCCC(=O)N2CCC[C@H]2C(=O)Nc2ccc(/C=C/c3ccc(NC(=O)[C@@H]4CCCN4C(=O)Cc4ccccc4)cc3)cc2)N1
EC50 [12]: > 10000 nM
EC50 [13]: 33 nM
EC50 [14]: > 10000 nM

Molecule: O=C(O)c1ccc2c(C3CCCCC3)c3n(c2c1)CC(C(=O)N1CCOCC1)=Cc1ccccc1-3
EC50 [6]: 404 nM
EC50 [7]: 359 nM

Molecule: COc1ccc2c(c1)[C@@H]1C[C@]1(C(=O)N1C[C@@H](C)O[C@@H](C)C1)Cn1c-2c(C2CCCCC2)c2ccc(C(=O)NS(=O)(=O)N(C)C)cc21
EC50 [6]: 1 nM
EC50 [7]: 3 nM

Molecule: Fc1cccc(NC(=S)NCc2ccco2)c1
EC50 [15]: 0.6 nM

Molecule: CN(C)[C@@H](C(=O)N1CCC[C@H]1c1ncc(-c2ccc(-c3ccc(-c4cnc([C@@H]5CCCN5C(=O)[C@@H](c5ccccc5)N(C)C)[nH]4)cc3)cc2)[nH]1)c1ccccc1
EC50 [13]: 0.037 nM
EC50 [14]: 0.042 nM

Molecule: O=C(O)/C=C/c1ccc(NC(=O)C2(NC(=O)c3ccc4c(C5CCCCC5)c5n(c4c3)CC(=O)Nc3ccccc3-5)CCCC2)cc1
EC50 [16]: 8 nM

Molecule: O=C(Nc1ccc(/C=C/c2ccc(NC(=O)[C@@H]3CCCN3C(=O)CC3CC3)cc2)cc1)[C@@H]1CCCN1C(=O)CC1CC1
EC50 [14]: 62 nM

Molecule: CC(C)C[C@H](NC(=O)[C@H](CCC(=O)O)NC(=O)OC(C)(C)C)C(=O)NC(CC(F)F)C(=O)C(=O)O (stereo not given in full)
Ki [8]: 17000 nM
Ki [17]: 27 nM

Molecule: C[C@H](NC(=O)Cc1ccccc1)C(=O)Nc1ccc(C2(O)C(=O)N(Cc3ccco3)C(=S)N2c2cccc(F)c2)cc1 (stereo not given in full)
EC50 [15]: 43 nM

Molecule: COC(=O)N[C@@H](C(=O)N1CCC[C@H]1c1ncc(-c2ccc(-c3ccc(-c4cnc([C@@H]5CCCN5C(=O)[C@H](NC(=O)OC)c5ccccc5)[nH]4)cc3)cc2)[nH]1)c1ccccc1
EC50 [13]: 0.028 nM
EC50 [14]: 0.0067 nM

Molecule: COc1ccc2c(c1)C1CC1(C(=O)N1C3CCC1CN(C)C3)Cn1c-2c(C2CCCCC2)c2ccc(C(=O)NS(=O)(=O)N(C)C)cc21 (racemic)
EC50 [13]: 3 nM
EC50 [14]: 208 nM

Reference: ChEMBL document CHEMBL5252531, “2015 Philip S. Portoghese Medicinal Chemistry Lectureship. Curing Hepatitis C Virus Infection with Direct-Acting Antiviral Agents: The Arc of a Medicinal Chemistry Triumph” (J Med Chem, 2016)
